Experimental findings from patent publication US10336761B2, “TGFβ receptor antagonist” (BRISTOL-MYERS SQUIBB COMPANY, priority 2015, dated 2019) are described below.

pIC50: −log10 of the molar value.

As a reminder, the pIC50 is the negative decadic logarithm of the IC50, by convention in mol/L. A higher pIC50 goes with a low IC50.

This test addresses HIS-TGFβR1 T204D (Homo sapiens (Human), UniProt P36897, T204D). Briefly: HTRF probe-displacement assay, HIS-TGFβR1 T204D. The format is binding. Conditions: 1 hour at room temperature.

HIS-TGFβR1 T204D, sequence (P36897 34-503 T204D): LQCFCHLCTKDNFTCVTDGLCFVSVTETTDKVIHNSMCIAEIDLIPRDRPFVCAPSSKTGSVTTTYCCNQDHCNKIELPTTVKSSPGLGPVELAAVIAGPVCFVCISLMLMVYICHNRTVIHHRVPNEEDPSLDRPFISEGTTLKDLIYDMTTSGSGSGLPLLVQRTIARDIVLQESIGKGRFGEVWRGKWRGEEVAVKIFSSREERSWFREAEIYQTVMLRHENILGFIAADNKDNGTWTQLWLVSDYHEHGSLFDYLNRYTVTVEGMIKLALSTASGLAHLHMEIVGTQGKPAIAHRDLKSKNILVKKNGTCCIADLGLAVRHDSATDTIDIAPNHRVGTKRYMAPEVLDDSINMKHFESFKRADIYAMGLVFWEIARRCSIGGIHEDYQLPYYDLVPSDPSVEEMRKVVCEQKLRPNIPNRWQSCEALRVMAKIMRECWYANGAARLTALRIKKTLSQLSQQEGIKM

`Fc1cnccc1Nc1nc(-c2cccc(C(F)(F)F)n2)nn2cccc12` [Example 84, 3-fluoro-N-{2-[6-(trifluoromethyl)pyridin-2-yl]pyrrolo[2,1-f][1,2,4]triazin-4-yl}pyridin-4-amine] gave a pIC50 of 8.43.
`FC(F)(F)c1cccc(-c2nc(Nc3ccncc3Cl)c3cccn3n2)n1` [Example 86, 3-chloro-N-{2-[6-(trifluoromethyl)pyridin-2-yl]pyrrolo[2,1-f][1,2,4]triazin-4-yl}pyridin-4-amine] had a pIC50 of 8.72.
`Cc1csc(-c2nc(Nc3ccncc3Cl)c3cccn3n2)n1` [Example 87, 3-chloro-N-[2-(4-methyl-1,3-thiazol-2-yl)pyrrolo[2,1-f][1,2,4]triazin-4-yl]pyridin-4-amine] gave a pIC50 of 9.04.
In the case of `Cc1csc(-c2nc(Nc3ccncc3)c3cccn3n2)n1` [Example 88, N-[2-(4-methyl-1,3-thiazol-2-yl)pyrrolo[2,1-f][1,2,4]triazin-4-yl]pyridin-4-amine] it was 8.82; in that of `Fc1cnccc1Nc1nc(-c2ccc[nH]2)nn2cccc12` [Example 89, 3-fluoro-N-[2-(1H-pyrrol-2-yl)pyrrolo[2,1-f][1,2,4]triazin-4-yl]pyridin-4-amine], 6.72; in that of `CS(=O)(=O)Nc1cccc(-c2nc(Nc3ccncc3Cl)c3cccn3n2)n1` [Example 90, N-(6-{4-[(3-chloropyridin-4-yl)amino]pyrrolo[2,1-f][1,2,4]triazin-2-yl}pyridin-2-yl)methanesulfonamide], 8.06.
`COc1cccc(-c2nc(Nc3ccncc3)c3c(Cl)ccn3n2)n1` [Example 91, N-[5-chloro-2-(6-methoxypyridin-2-yl)pyrrolo[2,1-f][1,2,4]triazin-4-yl]pyridin-4-amine] gave a pIC50 of 7.31.
On to `COc1cccc(-c2nc(Nc3ccnc(C)c3)c3cccn3n2)n1` [Example 92, N-[2-(6-methoxypyridin-2-yl)pyrrolo[2,1-f][1,2,4]triazin-4-yl]-2-methylpyridin-4-amine], for which the negative logarithm of the IC50 (pIC50) is 5.82.
With `COc1cccc(-c2nc(Nc3ccnc(Cl)c3)c3cccn3n2)n1` [Example 93, 2-chloro-N-[2-(6-methoxypyridin-2-yl)pyrrolo[2,1-f][1,2,4]triazin-4-yl]pyridin-4-amine] the figure was 5.18.
With `COc1cccc(-c2nc(Nc3ccnc(F)c3)c3cccn3n2)n1` [Example 94, 2-fluoro-N-[2-(6-methoxypyridin-2-yl)pyrrolo[2,1-f][1,2,4]triazin-4-yl]pyridin-4-amine] the figure was 6.20; with `COc1cccc(-c2nc(Nc3ccncc3N)c3cccn3n2)n1` [Example 95, 4-N-[2-(6-methoxypyridin-2-yl)pyrrolo[2,1-f][1,2,4]triazin-4-yl]pyridine-3,4-diamine], 7.70; with `COc1cccc(-c2nc(Nc3ccnc(F)c3)c3c(C)ccn3n2)n1` [Example 96, 2-fluoro-N-[2-(6-methoxypyridin-2-yl)-5-methylpyrrolo[2,1-f][1,2,4]triazin-4-yl]pyridin-4-amine], 6.19.
With `COc1cccc(-c2nc(Nc3ccnc(NC(C)=O)c3)c3cccn3n2)n1` [Example 97, N-(4-{[2-(6-methoxypyridin-2-yl)pyrrolo[2,1-f][1,2,4]triazin-4-yl]amino}pyridin-2-yl)acetamide] the figure was 8.54.
Consider `COc1cccc(-c2nc(Nc3ccncc3C(N)=O)c3cccn3n2)n1` [Example 98, 4-{[2-(6-methoxypyridin-2-yl)pyrrolo[2,1-f][1,2,4]triazin-4-yl]amino}pyridine-3-carboxamide], for which the negative-log IC50 (pIC50) is 8.04.
The compound `COc1cccc(-c2nc(Nc3ccnc(N4CCOCC4)c3)c3cccn3n2)n1` [Example 99, N-[2-(6-methoxypyridin-2-yl)pyrrolo[2,1-f][1,2,4]triazin-4-yl]-2-(morpholin-4-yl)pyridin-4-amine] had a pIC50 of 5.54.
`Fc1cnccc1Nc1nc(-c2ccnc(C(F)(F)F)n2)nn2cccc12` [Example 100, 3-fluoro-N-{2-[2-(trifluoromethyl)pyrimidin-4-yl]pyrrolo[2,1-f][1,2,4]triazin-4-yl}pyridin-4-amine] had a negative-log IC50 (pIC50) of 7.82. Compared with the last compound, the pIC50 is 2.28 log units higher.
With `COc1nccc(-c2nc(Nc3ccncc3F)c3cccn3n2)n1` [Example 101, 3-fluoro-N-[2-(2-methoxypyrimidin-4-yl)pyrrolo[2,1-f][1,2,4]triazin-4-yl]pyridin-4-amine] the figure was 6.28; with `CCOc1cccc(-c2nc(Nc3ccncc3F)c3cccn3n2)n1` [Example 102, N-[2-(6-ethoxypyridin-2-yl)pyrrolo[2,1-f][1,2,4]triazin-4-yl]-3-fluoropyridin-4-amine], 7.82; with `COc1cccc(-c2nc(Nc3ccncc3F)c3cc(N)cn3n2)n1` [Example 103, 4-N-(3-fluoropyridin-4-yl)-2-(6-methoxypyridin-2-yl)pyrrolo[2,1-f][1,2,4]triazine-4,6-diamine], 6.85.
Turning to `COc1cccc(-c2nc(Nc3ccncc3F)c3cc(NC(C)=O)cn3n2)n1` [Example 104, N-{4-[(3-fluoropyridin-4-yl)amino]-2-(6-methoxypyridin-2-yl)pyrrolo[2,1-f][1,2,4]triazin-6-yl}acetamide], the pIC50 was 7.07.
In the case of `COc1cccc(-c2nc(Nc3ccncc3F)c3cc(NC(=O)N4CCOCC4)cn3n2)n1` [Example 105, N-{4-[(3-fluoropyridin-4-yl)amino]-2-(6-methoxypyridin-2-yl)pyrrolo[2,1-f][1,2,4]triazin-6-yl}morpholine-4-carboxamide] it was 6.16; in that of `COc1cccc(-c2nc(Nc3ccncc3F)c3cc(NC(=O)CN4CCOCC4)cn3n2)n1` [Example 106, N-{4-[(3-fluoropyridin-4-yl)amino]-2-(6-methoxypyridin-2-yl)pyrrolo[2,1-f][1,2,4]triazin-6-yl}-2-(morpholin-4-yl)acetamide], 5.85; in that of `COc1cccc(-c2nc(Nc3ccncc3F)c3cc(NS(=O)(=O)C4CC4)cn3n2)n1` [Example 107, N-{4-[(3-fluoropyridin-4-yl)amino]-2-(6-methoxypyridin-2-yl)pyrrolo[2,1-f][1,2,4]triazin-6-yl}cyclopropanesulfonamide], 7.09.
The compound `COc1cccc(-c2nc(Nc3ccncc3F)c3cc(NC(=O)CNC(=O)OC(C)(C)C)cn3n2)n1` [Example 108, tert-butyl N-[({4-[(3-fluoropyridin-4-yl)amino]-2-(6-methoxypyridin-2-yl)pyrrolo[2,1-f][1,2,4]triazin-6-yl}carbamoyl)methyl]carbamate] showed a pIC50 of 6.48. This pIC50 lies 0.61 log units lower than the previous one.
In turn, `COc1cccc(-c2nc(Nc3ccncc3F)c3cc(NC(=O)CN)cn3n2)n1` [Example 109, 2-amino-N-{4-[(3-fluoropyridin-4-yl)amino]-2-(6-methoxypyridin-2-yl)pyrrolo[2,1-f][1,2,4]triazin-6-yl}acetamide] had a pIC50 of 5.80.
Compound `COc1cccc(-c2nc(Nc3ccncc3F)c3cc(NC(=O)CNS(C)(=O)=O)cn3n2)n1` [Example 110, N-{4-[(3-fluoropyridin-4-yl)amino]-2-(6-methoxypyridin-2-yl)pyrrolo[2,1-f][1,2,4]triazin-6-yl}-2-methanesulfonamidoacetamide] had a pIC50 of 6.89. Against the preceding compound, the pIC50 is 1.09 log units higher.
With `CS(=O)(=O)N(c1cc2c(Nc3ccncc3F)nc(-c3cccc(C(F)(F)F)n3)nn2c1)S(C)(=O)=O` [Example 111, N-{4-[(3-fluoropyridin-4-yl)amino]-2-[6-(trifluoromethyl)pyridin-2-yl]pyrrolo[2,1-f][1,2,4]triazin-6-yl}-N-methanesulfonylmethanesulfonamide] the figure was 7.28.
In the case of `COc1cccc(-c2nc(Nc3ccncc3F)c3c(CCN4CCN(C)CC4)ccn3n2)n1` [Example 112, 3-fluoro-N-[2-(6-methoxypyridin-2-yl)-5-[2-(4-methylpiperazin-1-yl)ethyl]pyrrolo[2,1-f][1,2,4]triazin-4-yl]pyridin-4-amine] it was 6.44.
As to `COc1cccc(-c2nc(Nc3ccncc3F)c3c(CCN4CCOCC4)ccn3n2)n1` [Example 113, 3-fluoro-N-[2-(6-methoxypyridin-2-yl)-5-[2-(morpholin-4-yl)ethyl]pyrrolo[2,1-f][1,2,4]triazin-4-yl]pyridin-4-amine], the negative logarithm of the IC50 (pIC50) is 6.92.
Turning to `COc1cccc(-c2nc(Nc3ccncc3F)c3c(CCN4CCC(N)CC4)ccn3n2)n1` [Example 114, N-{5-[2-(4-aminopiperidin-1-yl)ethyl]-2-(6-methoxypyridin-2-yl)pyrrolo[2,1-f][1,2,4]triazin-4-yl}-3-fluoropyridin-4-amine], the negative logarithm of the IC50 (pIC50) was 6.59.
The compound `CN1CCN(Cc2ccn3nc(-c4cccc(C(F)F)n4)nc(Nc4ccncc4F)c23)CC1` [Example 115, N-{2-[6-(difluoromethyl)pyridin-2-yl]-5-[(4-methylpiperazin-1-yl)methyl]pyrrolo[2,1-f][1,2,4]triazin-4-yl}-3-fluoropyridin-4-amine] gave a pIC50 of 8.24. This pIC50 is 1.65 log units higher than that of the compound before.
Consider `CC(C)(O)CNCc1ccn2nc(-c3cccc(C(F)F)n3)nc(Nc3ccncc3F)c12` [Example 116, 1-[({2-[6-(difluoromethyl)pyridin-2-yl]-4-[(3-fluoropyridin-4-yl)amino]pyrrolo[2,1-f][1,2,4]triazin-5-yl}methyl)amino]-2-methylpropan-2-ol], for which the pIC50 was 8.64. This pIC50 is 0.40 log units higher than that of the compound before.
With `CC(=O)Nc1cc(Nc2nc(-c3ccccn3)nn3ccc(CNCC(C)(C)O)c23)ccn1` [Example 117, N-{4-[(5-{[(2-hydroxy-2-methylpropyl)amino]methyl}-2-(pyridin-2-yl)pyrrolo[2,1-f][1,2,4]triazin-4-yl)amino]pyridin-2-yl}acetamide] the figure was 9.07; with `COc1cccc(-c2nc(Nc3ccncc3F)c3c(CNCC(C)(C)O)ccn3n2)n1` [Example 118, 1-[({4-[(3-fluoropyridin-4-yl)amino]-2-(6-methoxypyridin-2-yl)pyrrolo[2,1-f][1,2,4]triazin-5-yl}methyl)amino]-2-methylpropan-2-ol], 8.01.
Compound `COc1cccc(-c2nc(Nc3ccncc3F)c3c(CNCCN4CCCC4)ccn3n2)n1` [Example 119, 3-fluoro-N-[2-(6-methoxypyridin-2-yl)-5-({[2-(pyrrolidin-1-yl)ethyl]amino}methyl)pyrrolo[2,1-f][1,2,4]triazin-4-yl]pyridin-4-amine] gave a pIC50 of 7.20.
